According to patent publication US20140155410A1 (GlaxoSmithKline LLC, priority 2008, published 2014):

Assays:
GST-tagged FAK = biological target: T1, GST-tagged FAK (Homo sapiens, UniProt Q05397); experiment: Biochemical assay for FAK activity, Assay 1: phosphorylation of peptide substrate with radio-labeled ATP; conditions: 5 μM ATP, 30 min pre-incubation; for IC50: read-out: Assay 1 FAK TRF PXC50 (converted)
T1 construct: purchased Invitrogen PV3832
Method: GST-tagged (glutathione S-transferase-tagged) FAK was purchased from Invitrogen (PV3832) (www.invitrogen.com). […] To measure inhibitors of FAK, compounds were first prepared as a 10× stock in 10% DMSO. […] A 6-nM GST-FAK solution was prepared in 1.1× reaction buffer containing 44 mM HEPES, pH=7.2, 11 mM MgCl2, 2.2 mM MnCl2, 1.1 mM DTT and 0.011% Tween-20. Then, 20 μL of the 6 nM GST-FAK solution were pre-incubated with the compounds for 30 min at room temperature. […] The reaction was allowed to proceed for 90 min before being quenched with 40 μL of 1% H3PO4. A portion of the reaction mixture (60 μL) was transferred to a phospho-cellulose filter plate (Millipore; www.millipore.com, MAPHNOB50) and incubated for 20 minutes. The plate was filtrated, washed three times using 150 μL of 0.5% H3PO4 and dried at 50° C. for 30 min. After the addition of 60 μL Microscint-20 to the plate, radioactivity was measured using a TopCount (PerkinElmer; www.PerkinElmer.com).

[1] = biological target: T2, Full length Human FAK (Flag-His-TEV-FAK1) (Homo sapiens, UniProt Q05397); experiment: Biochemical assay for FAK activity, Assay 2: LANCE Ultra ULight peptide phosphorylation, 665 nm/615 nm ratio; conditions: Flag-His-TEV-FAK1, 10 μM ATP, 30 min pre-incubation; for IC50: read-out: Assay 2 FAK H 31284A TRF PXC50 (converted)
T2 construct: Full length Human FAK was expressed using baculovirus in Sf9 cells; made in house; host or cells: baculovirus in Sf9 cells
T2 sequence (Q05397 whole entry): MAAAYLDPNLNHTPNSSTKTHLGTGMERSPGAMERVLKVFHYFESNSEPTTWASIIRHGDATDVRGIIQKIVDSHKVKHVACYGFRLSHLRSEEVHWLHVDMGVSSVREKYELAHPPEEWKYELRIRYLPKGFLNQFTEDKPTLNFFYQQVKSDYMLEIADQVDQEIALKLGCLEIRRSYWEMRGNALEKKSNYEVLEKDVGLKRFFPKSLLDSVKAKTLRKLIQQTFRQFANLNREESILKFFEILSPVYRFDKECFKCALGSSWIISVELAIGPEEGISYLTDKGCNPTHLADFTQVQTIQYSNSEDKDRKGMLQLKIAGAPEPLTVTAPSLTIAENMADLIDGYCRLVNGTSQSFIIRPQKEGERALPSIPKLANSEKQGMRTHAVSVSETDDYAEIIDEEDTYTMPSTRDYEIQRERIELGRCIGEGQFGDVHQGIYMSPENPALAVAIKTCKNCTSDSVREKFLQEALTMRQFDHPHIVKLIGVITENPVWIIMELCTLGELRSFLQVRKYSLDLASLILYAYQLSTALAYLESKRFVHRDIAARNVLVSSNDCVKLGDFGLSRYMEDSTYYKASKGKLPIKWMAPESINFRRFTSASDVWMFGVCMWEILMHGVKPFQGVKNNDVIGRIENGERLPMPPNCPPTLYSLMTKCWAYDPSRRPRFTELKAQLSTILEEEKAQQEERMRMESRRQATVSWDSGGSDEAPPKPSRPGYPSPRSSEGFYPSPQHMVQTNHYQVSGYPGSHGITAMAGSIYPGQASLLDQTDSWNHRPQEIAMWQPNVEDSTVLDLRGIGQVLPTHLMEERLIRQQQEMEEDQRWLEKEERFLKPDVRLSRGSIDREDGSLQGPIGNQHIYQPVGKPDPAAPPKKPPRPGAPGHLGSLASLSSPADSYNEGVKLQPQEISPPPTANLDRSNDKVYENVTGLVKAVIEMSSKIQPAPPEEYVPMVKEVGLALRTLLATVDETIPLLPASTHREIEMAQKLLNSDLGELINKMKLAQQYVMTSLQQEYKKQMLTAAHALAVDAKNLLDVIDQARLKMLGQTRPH
Method: Flag-His-TEV-FAK1 was prepared in-house. Full length Human FAK was expressed using baculovirus in Sf9 cells with N-terminal FLAG-6×His tags followed by a TEV cleavage site (FLAG-6×His-TEV-huFAK). […] To measure inhibitors of FAK, compounds were first prepared as a 100× stock in 100% DMSO. […] After incubating for 120 minutes at room temperature, the reaction is quenched by adding 5 uL of 20 mM EDTA and 5nMEu-Anti-pTyr antibody in 1× LANCE detection buffer.

T1 sequence (Q05397 whole entry): as above

CNC(=O)c1cc(N2CCN(CCO)CC2)ccc1Nc1cc(Cl)ncc1Cl [Example 66, 2-[(2,5-Dichloro-4-pyridinyl)amino]-5-[4-(2-hydroxyethyl)-1-piperazinyl]-N-methylbenzamide]
IC50 (GST-tagged FAK): 2 nM
IC50 [1]: 31.6 nM

CNC(=O)c1ccccc1Nc1cc(Nc2cc(C)nn2C)ncc1Cl [Example 5, 2-({5-Chloro-2-[(1,3-dimethyl-1H-pyrazol-5-yl)amino]-4-pyridinyl}amino)-N-methylbenzamide]
IC50 (GST-tagged FAK): 1 nM
IC50 [1]: 7.94 nM

CNC(=O)c1cc(F)ccc1Nc1cc(Nc2cc(C)nn2C)ncc1Cl [Example 7, 2-({5-Chloro-2-[(1,3-dimethyl-1H-pyrazol-5-yl)amino]-4-pyridinyl}amino)-5-fluoro-N-methylbenzamide]
IC50 (GST-tagged FAK): 0.794 nM
IC50 [1]: 10 nM

CNC(=O)c1cccc(F)c1Nc1cc(Nc2cc(C)nn2C)ncc1Cl [Example 8, 2-({5-Chloro-2-[(1,3-dimethyl-1H-pyrazol-5-yl)amino]-4-pyridinyl}amino)-3-fluoro-N-methylbenzamide]
IC50 (GST-tagged FAK): 0.631 nM
IC50 [1]: 5.01 nM

CCn1nc(C)cc1Nc1cc(Nc2ccccc2C(=O)NC)c(Cl)cn1 [Example 13, 2-({5-Chloro-2-[(1-ethyl-3-methyl-1H-pyrazol-5-yl)amino]-4-pyridinyl}amino)-N-methylbenzamide]
IC50 (GST-tagged FAK): 0.501 nM
IC50 [1]: 2 nM

CCn1nc(C)cc1Nc1cc(Nc2ccccc2C(=O)NC)c(C(F)(F)F)cn1 [Example 32, 2-{[2-[(1-Ethyl-3-methyl-1H-pyrazol-5-yl)amino]-5-(trifluoromethyl)-4-pyridinyl]amino}-N-methylbenzamide]
IC50 (GST-tagged FAK): 0.398 nM
IC50 [1]: 1 nM

2-({5-Chloro-2-[(1-ethyl-1H-pyrazol-5-yl)amino]-4-pyridinyl}amino)-N-ethylbenzamide [Example 44]
Assay 1 FAK TRF PXC50 (GST-tagged FAK): 8.2
Assay 2 FAK H 31284A TRF PXC50 [1]: 7.2

CNC(=O)c1ccccc1Nc1cc(Nc2cc(C)nn2CCN(C)C)ncc1Cl [Example 23, 2-{[5-Chloro-2-({1-[2-(dimethylamino)ethyl]-3-methyl-1H-pyrazol-5-yl}amino)-4-pyridinyl]amino}-N-methylbenzamide]
IC50 (GST-tagged FAK): 79.4 nM
IC50 [1]: 200 nM

CNC(=O)c1ccccc1Nc1cc(Nc2ccnn2C2CCN(C)CC2)ncc1Cl [Example 22, 2-[(5-Chloro-2-{[1-(1-methyl-4-piperidinyl)-1H-pyrazol-5-yl]amino}-4-pyridinyl)amino]-N-methylbenzamide]
IC50 (GST-tagged FAK): 31.6 nM
IC50 [1]: 251 nM

CCn1nccc1Nc1cc(Nc2ccc(N3CCN(CCO)CC3)cc2C(=O)NC)c(Cl)cn1 [Example 67, 2-({5-Chloro-2-[(1-ethyl-1H-pyrazol-5-yl)amino]-4-pyridinyl}amino)-5-[4-(2-hydroxyethyl)-1-piperazinyl]-N-methylbenzamide]
IC50 (GST-tagged FAK): 63.1 nM
IC50 [1]: 5.01 nM

CNC(=O)c1ccccc1Nc1cc(Nc2cc(C)nn2-c2ccccc2)ncc1C(F)(F)F [Example 33, N-Methyl-2-{[2-[(3-methyl-1-phenyl-1H-pyrazol-5-yl)amino]-5-(trifluoromethyl)-4-pyridinyl]amino}benzamide]
IC50 (GST-tagged FAK): 0.398 nM

CCn1nc(C(=O)O)cc1Nc1cc(Nc2ccccc2C(=O)NC)c(Cl)cn1 [Example 18, 5-{[5-Chloro-4-({2-[(methylamino)carbonyl]phenyl}amino)-2-pyridinyl]amino}-1-ethyl-1H-pyrazole-3-carboxylic acid]
IC50 (GST-tagged FAK): 10 nM

CNC(=O)c1ccccc1Nc1cc(Nc2cc(C)nn2CCO)ncc1C(F)(F)F [Example 34, 2-{[2-{[1-(2-hydroxyethyl)-3-methyl-1H-pyrazol-5-yl]amino}-5-(trifluoromethyl)-4-pyridinyl]amino}-N-methylbenzamide]
IC50 (GST-tagged FAK): 0.501 nM

CNC(=O)c1ccccc1Nc1cc(Nc2cc(C)nn2CCN(C)C)ncc1C(F)(F)F [Example 31, 2-{[2-({1-[2-(Dimethylamino)ethyl]-3-methyl-1H-pyrazol-5-yl}amino)-5-(trifluoromethyl)-4-pyridinyl]amino}-N-methylbenzamide]
IC50 (GST-tagged FAK): 3.98 nM

CNC(=O)c1cccc(F)c1Nc1cc(Nc2cnn(C)c2C)ncc1Cl [Example 76, 2-({5-Chloro-2-[(1,5-dimethyl-1H-pyrazol-4-yl)amino]-4-pyridinyl}amino)-3-fluoro-N-methylbenzamide]
IC50 [1]: 12.6 nM

[2H]C([2H])(O)c1cc(Nc2cc(Nc3c(F)cccc3C(=O)NC)c(Cl)cn2)n(C)n1 [Example 93, 2-[(5-Chloro-2-{[3-(hydroxymethyl)-1-methyl-1H-pyrazol-5-yl]amino}-4-pyridinyl)amino]-3-fluoro-N-methylbenzamide-d2]
IC50 [1]: 10 nM

CNC(=O)c1ccc(F)cc1Nc1cc(Nc2cc(C)nn2C)ncc1Cl [Example 87, 2-({5-Chloro-2-[(1,3-dimethyl-1H-pyrazol-5-yl)amino]-4-pyridinyl}amino)-4-fluoro-N-methylbenzamide]
IC50 [1]: 2.51 nM

CCn1nc(C)cc1Nc1cc(Nc2c(F)cccc2C(=O)NC)c(Cl)cn1 [Example 74, 2-({5-Chloro-2-[(1-ethyl-3-methyl-1H-pyrazol-5-yl)amino]-4-pyridinyl}amino)-3-fluoro-N-methylbenzamide]
IC50 [1]: 3.16 nM

CCn1nc(CO)cc1Nc1cc(Nc2c(F)cccc2C(=O)NOC)c(Cl)cn1 [Example 95c, 2-[(5-Chloro-2-{[1-ethyl-3-(hydroxymethyl) 1H-pyrazol-5-yl]amino}-4-pyridinyl)amino]-3-fluoro-N-(methyloxy)benzamide]
IC50 [1]: 12.6 nM

CNC(=O)c1cc(F)ccc1Nc1cc(Nc2cc(C)nn2C(C)C)ncc1Cl [Example 85, 2-[(5-Chloro-2-{[3-methyl-1-(1-methylethyl)-1H-pyrazol-5-yl]amino}-4-pyridinyl)amino]-5-fluoro-N-methylbenzamide]
IC50 [1]: 63.1 nM

CONC(=O)c1ccccc1Nc1cc(Nc2cnn(C)c2C)ncc1Cl [Example 47, 2-({5-Chloro-2-[(1,5-dimethyl-1H-pyrazol-4-yl)amino]-4-pyridinyl}amino)-N-(methyloxy)benzamide]
IC50 [1]: 2.51 nM

CCn1nc(C)cc1Nc1cc(Nc2ccc(F)cc2C(=O)NC)c(Cl)cn1 [Example 84, 2-({5-Chloro-2-[(1-ethyl-3-methyl-1H-pyrazol-5-yl)amino]-4-pyridinyl}amino)-5-fluoro-N-methylbenzamide]
IC50 [1]: 10 nM

CNC(=O)c1cc(F)ccc1Nc1cc(Nc2cc(C)nn2C)ncc1Cl [Example 83, 2-({5-Chloro-2-[(1,3-dimethyl-1H-pyrazol-5-yl)amino]-4-pyridinyl}amino)-5-fluoro-N-methylbenzamide]
IC50 [1]: 12.6 nM

CCn1nc(CO)cc1Nc1cc(Nc2c(F)cccc2C(=O)NC)c(C(F)(F)F)cn1 [Example 79, 2-{[2-{[1-Ethyl-3-(hydroxymethyl)-1H-pyrazol-5-yl]amino}-5-(trifluoromethyl)-4-pyridinyl]amino}-3-fluoro-N-methylbenzamide]
IC50 [1]: 10 nM

CONC(=O)c1ccc(F)cc1Nc1cc(Nc2cc(C)nn2C(C)C)ncc1Cl [Example 73, 2-[(5-Chloro-2-{[3-methyl-1-(1-methylethyl)-1H-pyrazol-5-yl]amino}-4-pyridinyl)amino]-4-fluoro-N-(methyloxy)benzamide]
IC50 [1]: 1.26 nM

CCn1nc(CCO)cc1Nc1cc(Nc2c(F)cccc2C(=O)NC)c(Cl)cn1 [Example 90, 2-[(5-Chloro-2-{[1-ethyl-3-(2-hydroxyethyl)-1H-pyrazol-5-yl]amino}-4-pyridinyl)amino]-3-fluoro-N-methylbenzamide]
IC50 [1]: 10 nM

CCONC(=O)c1ccccc1Nc1cc(Nc2cc(C)nn2CC)ncc1Cl [Example 64, 2-({5-Chloro-2-[(1-ethyl-3-methyl-1H-pyrazol-5-yl)amino]-4-pyridinyl}amino)-N-(ethyloxy)benzamide]
IC50 [1]: 79.4 nM

[2H]C([2H])(O)c1cc(Nc2cc(Nc3c(F)cccc3C(=O)NC)c(Cl)cn2)n(CC)n1 [Example 94, 2-[(5-Chloro-2-{[1-ethyl-3-(hydroxymethyl)-1H-pyrazol-5-yl]amino}-4-pyridinyl)amino]-3-fluoro-N-methylbenzamide-d2]
IC50 [1]: 3.98 nM

CONC(=O)c1ccc(Cl)cc1Nc1cc(Nc2cc(C)nn2C(C)C)ncc1Cl [Example 69, 4-Chloro-2-[(5-chloro-2-{[3-methyl-1-(1-methylethyl)-1H-pyrazol-5-yl]amino}-4-pyridinyl)amino]-N-(methyloxy)benzamide]
IC50 [1]: 2.51 nM

Cc1cc(Nc2cc(Nc3ccc(F)cc3C(=O)N3CCCN3C)c(Cl)cn2)n(C(C)C)n1 [Example 96b, 5-Chloro-N^4-{4-fluoro-2-[(2-methyl-1-pyrazolidinyl)carbonyl]phenyl}-N^2-[3-methyl-1-(1-methylethyl)-1H-pyrazol-5-yl]-2,4-pyridinediamine]
IC50 [1]: 2000 nM
